# Reference: patent publication US20250054624A1, “METHODS AND SYSTEMS FOR DIGITAL PATHOLOGY ASSESSMENT OF CANCER VIA DEEP LEARNING” (Artera Inc., priority 2023, published 2025)
# Entries after “also recorded” stand apart in the source; their conditions may differ. Where two headings read alike, the source gives them in different places.
# Columns and labels:
# [1] = tested on: nonmetastatic castration-resistant prostate cancer (nmCRPC); assay: SPARTAN phase III randomized placebo-controlled trial; outcomes by treatment group and MMAI risk group; assay type: in vivo, human; conditions: for PFS2 hazard ratio (HR) for apalutamide compared to placebo: second progression-free survival; for MFS HR, variable Treatment, Cox regression multivariable analysis / OS HR, variable Treatment, Cox regression multivariable analysis / PFS2 HR, variable Treatment, Cox regression multivariable analysis: all patients
# Excerpt: The addition of apalutamide (APA) to androgen deprivation therapy (ADT) improved metastasis-free survival (MFS) and second progression-free survival (PFS2) among patients with nonmetastatic castration-resistant prostate cancer (nmCRPC). A digital histopathology-based multimodal AI (MMAI) algorithm as described herein was trained to evaluate whether MMAI could define risk of progression among nmCRPC patients treated with APA or placebo in the SPARTAN trial.
# Patients enrolled in the SPARTAN trial with available H&E-stained biopsy slides from their primary diagnosis were included. H&E slides were digitized. Baseline clinical parameters to generate MMAI scores were Gleason score, age, T stage, and PSA. MMAI scores for distant metastasis (DM) were generated, ranging from 0 to 1. Patients were further categorized into MMAI non-high-risk and high-risk groups using a score cutoff. Kaplan Meier estimates were calculated for PFS2 and MFS; comparisons were performed using log-rank test and Cox proportional-hazards regression for treatment arms and MMAI risk groups. […] was used to evaluate the interaction between treatment arms and risk groups.
# SPARTAN (NCT01946204) was an international, multicenter, randomized, double-blinded, placebo-controlled, phase III clinical trial that evaluated the efficacy of apalutamide in improving MFS in men with nmCRPC. […] These patients were considered at high risk for the development of metastases, as indicated by a PSA doubling time of 10 months or less during continuous ADT.
# Participants were randomly assigned 2:1 to receive ongoing ADT with either apalutamide (240 mg daily) or a matched placebo. A primary endpoint of the study was MFS, defined as the duration from randomization to the first detection of distant metastasis on conventional imaging (as determined on central review by independent radiologists blinded to patient identifiers and treatment) or death from any cause, whichever occurred first. Secondary endpoints included second progression-free survival (PFS2), defined as the time from randomization to progression on first subsequent therapy, and overall survival (OS), defined as the time from randomization to death.
# MMAI scores were computed for each subject within the analysis cohort using whole slide images digitized at 20× resolution from H&E-stained prostate primary slides obtained at the time of diagnosis. These scores, ranging from 0 to 1, represent a continuum of increasing probabilities for clinical events such as DM and PCSM. Subjects' MMAI scores for risk of DM categorized patients into MMAI risk groups (low, intermediate and high) using predefined clinical thresholds established for patients with localized prostate cancer based upon clinician input. For the purpose of this analysis, patients were categorized as either MMAI high risk or MMAI non-high risk (MMAI score with >10% estimated 10-year DM rates defined high-risk), with the latter group combining the low and intermediate risk categories for comparison.
# Summary statistics of baseline characteristics for the analysis cohort, treatment subgroups and the overall clinical trial cohort were reported to evaluate comparability. Kaplan-Meier estimates were calculated for MFS, PFS2, and OS for analysis by treatment group and MMAI risk groups. Comparisons were performed using log-rank test and Cox proportional hazards regression models for treatment arms, MMAI risk scores, and MMAI risk group. The reporting unit for continuous MMAI scores in the Cox models is standard deviation (SD), meaning that each 1-unit increase corresponds to 1 SD increase in MMAI score. The interaction between treatment arm and MMAI risk scores was evaluated using a Cox proportional hazards model. Treatment effects within each MMAI risk subgroup were also assessed to measure the relative treatment effect between arms. […]
# [2] = tested on: nonmetastatic castration-resistant prostate cancer (nmCRPC); conditions: cited from earlier work
# [3] = all patients of analysis cohort
# [4] = model with MMAI risk group (high/non-high) and MMAI risk group:Treatment interaction
# [5] = model with continuous MMAI risk score and MMAI risk score:Treatment interaction
# [6] = overall SPARTAN study, in words
structure (smiles),measurement,setting,value
CNC(=O)c1ccc(N2C(=S)N(c3cnc(C#N)c(C(F)(F)F)c3)C(=O)C23CCC3)cc1F [apalutamide],"Median overall survival (95% CI), month","[1]; MMAI Biomarker Cohort, N = 311",65.1 month
same,MFS hazard ratio (HR) for apalutamide compared to placebo,"[1]; MMAI high risk group, metastasis-free survival, with ongoing ADT",0.19
same,OS hazard ratio (HR) for apalutamide compared to placebo,"[1]; MMAI high risk group, overall survival",0.6
same,PFS2 hazard ratio (HR) for apalutamide compared to placebo,[1]; MMAI high risk group,0.47
same,PFS2 hazard ratio (HR) for apalutamide compared to placebo,"[1]; MMAI high risk group, listed as APA",0.76
same,"MFS HR, variable Treatment, Cox regression univariate analysis",[1]; [3],0.28
same,"PFS2 HR, variable Treatment, Cox regression univariate analysis",[1]; [3],0.55
same,"OS HR, variable Treatment, Cox regression univariate analysis","[1]; all patients of analysis cohort, listed as Treatment",0.7
same,"MFS HR, variable Treatment, Cox regression multivariable analysis",[1]; [4],0.61
same,"OS HR, variable Treatment, Cox regression multivariable analysis",[1]; [4],0.97
same,"PFS2 HR, variable Treatment, Cox regression multivariable analysis",[1]; [4],0.74
same,"MFS HR, variable Treatment, Cox regression multivariable analysis",[1]; [5],1.72
same,"OS HR, variable Treatment, Cox regression multivariable analysis",[1]; [5],1.98
same,"PFS2 HR, variable Treatment, Cox regression multivariable analysis",[1]; [5],2.28
same,"Median metastasis-free survival (95% CI), month","[2]; Overall SPARTAN Trial, N = 806",40.5 month
same,"Median overall survival (95% CI), month","[2]; Overall SPARTAN Trial, N = 806",73.9 month
same,"metastasis-free survival (MFS), effect of adding apalutamide to ADT",[2]; [6],significantly improved
same,"second progression-free survival (PFS2), effect of adding apalutamide to ADT",[2]; [6],significantly improved
same,"time to symptomatic progression, effect of adding apalutamide to ADT",[2]; [6],significantly improved
same,"overall survival (OS), effect of adding apalutamide to ADT compared to placebo","[2]; overall SPARTAN study, in words, median follow up of 52 months",significantly improved; also recorded: significant extension
